# Test results from patent publication US20200383985A1, “Inhibitors of Protease Activated Receptor-2” (Endosome Therapeutics, Inc., priority 2017, published 2020).
# Tests used:
# mouse DRG neurons [1] = experiment: Patch clamp rheobase of DRG neurons: IBS-D biopsy supernatant-induced hyperexcitability; assay type: cell-based; details: I-343 10 μM, Dy4 30 μM, PD98059 50 μM
# Description: An investigation as whether proteases from mucosal biopsies of IBS patients cause a persistent hyperexcitability of nociceptors was conducted by a mechanism that entails endosomal signaling of PAR2. Biopsies of colonic mucosa from patients with diarrhea-predominant IBS (IBS-D) or healthy control (HC) subjects were placed in culture medium (24 h, 37° C.). Mouse DRG neurons were then exposed to biopsy supernatants (30 min, 37° C.) and washed. Rheobase was measured 30 min after washing to assess persistent hyperexcitability. Supernatants of biopsies from IBS-D patients caused a persistent decrease in rheobase, consistent with hyperexcitability, when compared to supernatants from HC subjects (rheobase at 30 min: HC, 78.33±4.41 pA, 12 neurons, supernatant from 4 HC; IBS-D, 54.55±4.74 pA, 11 neurons, supernatant from 4 IBS-D; P<0.05; ANOVA, Tukey's multiple comparisons test) (FIG. 6A, B). I-343 (10 μM), Dy4 (dynamin inhibitor, 30 μM) and PD98059 (MEK1 inhibitor, 50 μM) abolished IBS-D-induced hyperexcitability of nociceptors (FIG. 6A-D).
# The Queen's University Human Ethics Committee approved human studies. All subjects gave informed consent. Endoscopic biopsies were obtained from the descending colon of 13 adult IBS-D patients (12 female) diagnosed using ROME III criteria for diarrhea predominant IBS and of 12 health controls. All IBS patients had symptoms greater than 1 year and most were greater than 5 years. Celiac disease was excluded by blood test and patients over 40 years with daily diarrhea were biopsied at the time of colonoscopy to exclude microscopic colitis. […] Biopsies (8 samples per patient) were incubated in 250 μl of RPMI medium containing 10% fetal calf serum, penicillin/streptomycin and gentamicin/amphotericin B (95% O2/5% […], 24 h, 37° C.). Supernatants were stored at −80° C. Supernatants from 4-6 patients were pooled and studied in individual experiments.
# DRG innervating the colon (T9-T13) were collected from C57BL/6 mice. Ganglia were digested by incubation in collagenase IV (1 mg/ml, Worthington) and dispase (4 mg/ml, Roche) (10 min, 37° C.). DRG were triturated with a fire-polished Pasteur pipette, and further digested (5 min, 37° C.). Neurons were washed, plated onto laminin- (0.017 mg/ml) and poly-D-lysine- (2 mg/ml) coated glass coverslips, and were maintained in F12 medium containing 10% fetal calf serum, penicillin and streptomycin (95% air, 5% CO2, 16 h, 37° C.) until retrieval for electrophysiological studies.
# Small-diameter (<30 pF capacitance) neurons were studied because they display characteristics of nociceptors (Valdez-Morales E. E. et al., Am J Gastroenterol 2013, 108(10): 1634-1643). Changes in excitability were quantified by measuring rheobase. Whole-cell perforated patch-clamp recordings were made using Amphotericin B (240 μg/ml, Sigma Aldrich) in current clamp mode at room temperature. The recording chamber was perfused with external solution at 2 ml/min. Recordings were made using Multiclamp 700B or Axopatch 200B amplifiers, digitized by Digidata 1440A or 1322A, and processed using pClamp 10.1 software (Molecular Devices). Solutions had the composition (mM): pipette—K-gluconate 110, KC130, HEPES 10, MgCl2 1, CaCl2 2; pH 7.25 with 1 M KOH; external—NaCl 140, KCl 5 HEPES 10, glucose 10, MgCl2 1, CaCl2 2; pH to 7.3-7.4 with 3 M NaOH. […] Neurons were also preincubated with trypsin (50 nM, 10 min), NE (390 nM, 30 min), CS (500 nM, 60 min), or vehicle (37° C.), and washed. Rheobase was measured at T 0 or T 30 min after washing. To investigate mechanisms of protease-evoked effects, neurons were incubated with I-343 (100 nM, 300 nM, 10 μM, 30 min preincubation), SCH79797 (1 μM, 10 min), Dy4 (30 μM, 30 min), PS2 (15 μM, 30 min), PD98059 (50 μM, 30 min), GF109203X (10 μM, 30 min), or vehicle (preincubation and inclusion throughout). In experiments using the tripartite antagonist, neurons were preincubated with Compound 10 (30 μM, 60 min, 37° C.) or vehicle and washed. […]
# mouse DRG neurons [2] = experiment: Patch clamp rheobase of DRG neurons: protease-induced hyperexcitability of nociceptors; assay type: cell-based; details: PD98059 50 μM, GF109203X 10 μM
structure (smiles),measurement,setting,value
COc1cccc(-c2cc(=O)c3ccccc3o2)c1N [PD98059],IBS-D-induced hyperexcitability of nociceptors,mouse DRG neurons [1],abolished
same,rheobase of neurons exposed to HC supernatant,mouse DRG neurons [1],no effect
same,initial trypsin-induced hyperexcitability,mouse DRG neurons [2],did not affect
same,persistent trypsin-induced hyperexcitability,mouse DRG neurons [2],prevented
